In patent US10596164B2, “Anti-clostridium compounds” (Nederlandse Organisatie voor …, priority 2014, dated 2020):
Values after ≈ are worked out from the molar mass of the structure shown. Read-outs that look alike come from different tables or passages of the source. Marks after values point to notes of the source that are not given here.

Key:
[1] = system: Staphylococcus aureus ATCC 6538; assay: MIC test with asymmetrical compounds on S. aureus; format: cell-based
Description: (§1) Growth inhibition experiments were performed according to the following protocol: […] Microtiter plate wells were filled with 495 microliter of this suspension to which 5 microliter of selected compounds dissolved in DMSO was added (final concentration of each compound was 10 microgram per ml). This was all performed in an anaerobic cabinet. After filling the microtiter plate was sealed and incubated for 22 hours at 37° C. Inhibiting compounds were selected by visually determining growth inhibition. According to the same protocol as in Example 3 asymmetrical compounds were tested on their inhibitory effect of C. difficile, but also on other bacterial species, such as S. aureus and B. cereus. In the below tables the compounds and the MIC values that have been found for the various micro-organisms are listed. In the tests described in Table 4 and 5 the medium indicated as 'flora' is the SIEM medium described in […], Schols H A, Nauta A, Schoterman […]. High-throughput analysis of the impact of antibiotics on the human intestinal microbiota composition.

[2] = system: C. difficile ATCC 43599 vegetative cells; assay: MIC test with asymmetrical compounds on C. difficile vegetative cells; format: cell-based, Clostridium difficile; settings: for MIC: Clostridioides difficile; for MIC Veg. cells: Table 3
Description: as §1

[3] = system: Bacillus cereus ATCC 11778; assay: MIC test with asymmetrical compounds on B. cereus; format: cell-based
Description: as §1

[4] = system: C. difficile ATCC 43599 spores; assay: MIC test with asymmetrical compounds on C. difficile spores; format: cell-based, Clostridium difficile; settings: for MIC: Clostridioides difficile; for MIC spores: Table 3
Description: as §1

[5] = ATCC6538, Table 5, read-out: MIC S. aureus ATCC 6538
[6] = ATCC43599, 22 h, Table 4, SAB model medium, tested concentrations 1.2 μg/ml-0.03 μg/ml if not indicated otherwise, read-out: MIC veg. cells SAB model medium
[7] = ATCC43599, Table 3, vegetative cells, tested concentrations 10 μg/ml-0.003 μg/ml if not indicated otherwise, read-out: MIC Veg. cells
[8] = ATCC43599, Table 4, flora (SIEM) medium, tested concentrations 1.2 μg/ml-0.03 μg/ml if not indicated otherwise, read-out: MIC veg. cells flora
[9] = ATCC11778, Table 5, read-out: MIC B. cereus ATCC 11778
[10] = ATCC43599, 22 h, Table 4, SAB model medium, tested concentrations 1.2 μg/ml-0.03 μg/ml if not indicated otherwise, read-out: MIC spores SAB model medium
[11] = ATCC43599, Table 3, spores, tested concentrations 10 μg/ml-0.003 μg/ml if not indicated otherwise, read-out: MIC spores
[12] = ATCC43599, Table 4, flora (SIEM) medium, tested concentrations 1.2 μg/ml-0.03 μg/ml if not indicated otherwise, read-out: MIC spores flora
[13] = vegetative cells, tested concentrations 10 μg/ml-0.003 μg/ml if not indicated otherwise
[14] = Table 4, SAB model medium, tested concentrations 1.2 μg/ml-0.03 μg/ml if not indicated otherwise
[15] = Table 4, flora (SIEM) medium, tested concentrations 1.2 μg/ml-0.03 μg/ml if not indicated otherwise
[16] = spores, tested concentrations 10 μg/ml-0.003 μg/ml if not indicated otherwise

Structure (SMILES)	MIC [1, 5]	MIC [2, 6]	MIC [2, 7]	MIC [2, 8]	MIC [3, 9]	MIC [4, 10]	MIC [4, 11]	MIC [4, 12]	further results
CC(=O)OCCN1C(=O)c2ccc3c4c(ccc(c24)C1=O)C(=O)NC3=O [20141155PBmol21]	> 100 µg/mL		0.03 to 0.07 µg/mL (≈ 0.0852 to 0.199 µM)	0.15 to 0.3 µg/mL (≈ 0.426 to 0.852 µM)	40 µg/mL (≈ 114 µM)	0.03 to 0.07 µg/mL (≈ 0.0852 to 0.199 µM)	0.01 to 0.03 µg/mL (≈ 0.0284 to 0.0852 µM)	0.3 to 0.6 µg/mL (≈ 0.852 to 1.7 µM)	
O=C1NC(=O)c2ccc3c4c(ccc1c24)C(=O)N(c1ccccn1)C3=O [20141155PBmol18]	40 µg/mL (≈ 117 µM)	0.07 to 0.15 µg/mL (≈ 0.204 to 0.437 µM)	0.07 to 0.15 µg/mL (≈ 0.204 to 0.437 µM)	0.15 to 0.3 µg/mL (≈ 0.437 to 0.874 µM)	4 µg/mL (≈ 11.7 µM)	0.07 to 0.15 µg/mL (≈ 0.204 to 0.437 µM)	0.07 to 0.15 µg/mL (≈ 0.204 to 0.437 µM)	0.3 to 0.6 µg/mL (≈ 0.874 to 1.75 µM)	
O=C1NC(=O)c2ccc3c4c(ccc1c24)C(=O)N(c1ccncc1)C3=O [20141155PBmol20]	> 100 µg/mL				> 100 µg/mL				
O=C1NC(=O)c2ccc3c4c(ccc1c24)C(=O)N(c1ccccc1O)C3=O [20141155PBmol10]	40 µg/mL (≈ 112 µM)	0.3 to 0.6 µg/mL (≈ 0.837 to 1.67 µM)	0.3 to 0.6 µg/mL (≈ 0.837 to 1.67 µM)	0.15 to 0.3 µg/mL (≈ 0.419 to 0.837 µM)	4 µg/mL (≈ 11.2 µM)	0.3 to 0.6 µg/mL (≈ 0.837 to 1.67 µM)	0.15 to 0.3 µg/mL (≈ 0.419 to 0.837 µM)	> 1.2 µg/mL	
O=C1NC(=O)c2ccc3c4c(ccc1c24)C(=O)N(c1ccccc1)C3=O [20141155PBmol19]	> 100 µg/mL				> 100 µg/mL				MIC Veg. cells [2, 13]: 0.01 to 0.03 µg/mL; MIC veg. cells SAB model medium [2, 14]: <0.03 µg/mL; MIC veg. cells flora [2, 15]: 0.15 to 0.3 µg/mL; MIC spores [4, 16]: 0.007 to 0.01 µg/mL; MIC spores SAB model medium [4, 14]: <0.03 µg/mL
CN[C@H](CC(C)C)C(=O)N[C@H]1C(=O)N[C@@H](CC(N)=O)C(=O)N[C@H]2C(=O)N[C@H]3C(=O)N[C@H](C(=O)N[C@H](C(=O)O)c4cc(O)cc(O)c4-c4cc3ccc4O)[C@H](O)c3ccc(c(Cl)c3)Oc3cc2cc(c3O[C@@H]2O[C@H](CO)[C@@H](O)[C@H](O)[C@H]2O[C@H]2C[C@](C)(N)[C@H](O)[C@H](C)O2)Oc2ccc(cc2Cl)[C@H]1O [Vancomycin, reference compound]									MIC ([1]; ATCC6538, read-out: MIC S. aureus ATCC 6538): 1 µg/mL (≈ 0.69 µM); MIC ([2]; ATCC43599, 22 h, read-out: MIC veg. cells SAB model medium): < 0.3 µg/mL; MIC ([2]; ATCC43599, read-out: MIC Veg. cells): < 0.3 µg/mL; MIC ([2]; ATCC43599, read-out: MIC veg. cells flora): < 0.3 µg/mL; MIC ([3]; ATCC11778, read-out: MIC B. cereus ATCC 11778): 1 µg/mL (≈ 0.69 µM); MIC ([4]; ATCC43599, 22 h, read-out: MIC spores SAB model medium): < 0.3 µg/mL; MIC ([4]; ATCC43599, read-out: MIC spores): < 0.3 µg/mL; MIC ([4]; ATCC43599, read-out: MIC spores flora): < 0.3 µg/mL
O=C1NC(=O)c2ccc3c4c(ccc1c24)C(=O)N(c1cccc(O)c1)C3=O [20141155PBmol08]	> 100 µg/mL	0.15 to 0.3 µg/mL (≈ 0.419 to 0.837 µM)	0.07 to 0.15 µg/mL (≈ 0.195 to 0.419 µM)	0.6 to 1.2 µg/mL (≈ 1.67 to 3.35 µM)	10 µg/mL (≈ 27.9 µM)	0.07 to 0.15 µg/mL (≈ 0.195 to 0.419 µM)	0.03 to 0.07 µg/mL (≈ 0.0837 to 0.195 µM)	0.6 to 1.2 µg/mL (≈ 1.67 to 3.35 µM)	
O=C1NC(=O)c2ccc3c4c(ccc1c24)C(=O)N(CCO)C3=O [20141155PBmol57]	40 µg/mL (≈ 129 µM)	0.3 to 0.6 µg/mL (≈ 0.967 to 1.93 µM)	0.15 to 0.3 µg/mL (≈ 0.483 to 0.967 µM)	0.07 to 0.15 µg/mL (≈ 0.226 to 0.483 µM)	4 µg/mL (≈ 12.9 µM)	0.3 to 0.6 µg/mL (≈ 0.967 to 1.93 µM)	0.15 to 0.3 µg/mL (≈ 0.483 to 0.967 µM)	0.6 to 1.2 µg/mL (≈ 1.93 to 3.87 µM)	
O=C1c2ccc3c4c(ccc(c24)C(=O)N1CCO)C(=O)N(CCO)C3=O [A0547/0025269]		0.6 to 1.2 µg/mL (≈ 1.69 to 3.39 µM)	0.3 to 0.6 µg/mL (≈ 0.847 to 1.69 µM)	0.3 to 0.6 µg/mL (≈ 0.847 to 1.69 µM)		0.3 to 0.6 µg/mL (≈ 0.847 to 1.69 µM)	0.3 to 0.6 µg/mL (≈ 0.847 to 1.69 µM)	0.6 to 1.2 µg/mL (≈ 1.69 to 3.39 µM)	

Further lines, with some results ahead:

MIC [1, 5]	MIC [2, 6]	MIC [2, 7]	MIC [2, 8]	MIC [3, 9]	MIC [4, 10]	MIC [4, 11]	MIC [4, 12]	Structure (SMILES)	further results
> 100 µg/mL	0.07 to 0.15 µg/mL (≈ 0.207 to 0.443 µM)	0.07 to 0.15 µg/mL (≈ 0.207 to 0.443 µM)	0.15 to 0.3 µg/mL (≈ 0.443 to 0.887 µM)	4 µg/mL (≈ 11.8 µM)	0.07 to 0.15 µg/mL (≈ 0.207 to 0.443 µM)	0.03 to 0.07 µg/mL (≈ 0.0887 to 0.207 µM)	0.15 to 0.3 µg/mL (≈ 0.443 to 0.887 µM)	O=C1NC(=O)c2ccc3c4c(ccc1c24)C(=O)N(CCCCO)C3=O [20141155PBmol41]	
> 100 µg/mL				> 100 µg/mL				O=C1NC(=O)c2ccc3c4c(ccc1c24)C(=O)N(Cc1cccnc1)C3=O [20141155PBmol13]	
40 µg/mL (≈ 112 µM)	0.07 to 0.15 µg/mL (≈ 0.195 to 0.419 µM)	0.07 to 0.15 µg/mL (≈ 0.195 to 0.419 µM)	0.6 to 1.2 µg/mL (≈ 1.67 to 3.35 µM)	4 µg/mL (≈ 11.2 µM)	0.07 to 0.15 µg/mL (≈ 0.195 to 0.419 µM)	0.03 to 0.07 µg/mL (≈ 0.0837 to 0.195 µM)	0.3 to 0.6 µg/mL (≈ 0.837 to 1.67 µM)	O=C1NC(=O)c2ccc3c4c(ccc1c24)C(=O)N(c1ccc(O)cc1)C3=O [20141155PBmol37]	
> 100 µg/mL	0.03 to 0.07 µg/mL (≈ 0.0856 to 0.2 µM)	0.03 to 0.07 µg/mL (≈ 0.0856 to 0.2 µM)	0.3 to 0.6 µg/mL (≈ 0.856 to 1.71 µM)	> 100 µg/mL	0.03 to 0.07 µg/mL (≈ 0.0856 to 0.2 µM)	0.01 to 0.03 µg/mL (≈ 0.0285 to 0.0856 µM)	0.3 to 0.6 µg/mL (≈ 0.856 to 1.71 µM)	O=C1NC(=O)c2ccc3c4c(ccc1c24)C(=O)N(CC1CCCO1)C3=O (stereo not shown) [20141155PBmol30]	
	< 0.3 µg/mL	< 0.3 µg/mL	< 0.3 µg/mL		< 0.3 µg/mL	< 0.3 µg/mL	< 0.3 µg/mL	Cc1ncc([N+](=O)[O-])n1CCO [Metronadizol, reference compound]	
> 100 µg/mL	0.03 to 0.07 µg/mL (≈ 0.0781 to 0.182 µM)	0.01 to 0.03 µg/mL (≈ 0.026 to 0.0781 µM)	0.3 to 0.6 µg/mL (≈ 0.781 to 1.56 µM)	4 µg/mL (≈ 10.4 µM)	0.03 to 0.07 µg/mL (≈ 0.0781 to 0.182 µM)	0.01 to 0.03 µg/mL (≈ 0.026 to 0.0781 µM)	> 1.2 µg/mL	CC(=O)c1cccc(N2C(=O)c3ccc4c5c(ccc(c35)C2=O)C(=O)NC4=O)c1 [20141155PBmol17]	
10 µg/mL (≈ 24.9 µM)	0.07 to 0.15 µg/mL (≈ 0.174 to 0.373 µM)	0.07 to 0.15 µg/mL (≈ 0.174 to 0.373 µM)	0.6 to 1.2 µg/mL (≈ 1.49 to 2.98 µM)	4 µg/mL (≈ 9.94 µM)	0.07 to 0.15 µg/mL (≈ 0.174 to 0.373 µM)	0.03 to 0.07 µg/mL (≈ 0.0746 to 0.174 µM)	0.6 to 1.2 µg/mL (≈ 1.49 to 2.98 µM)	COc1ccc(OC)c(N2C(=O)c3ccc4c5c(ccc(c35)C2=O)C(=O)NC4=O)c1 [20141155PBmol46]	
							0.6 to 1.2 µg/mL (≈ 1.75 to 3.51 µM)	O=C1NC(=O)c2ccc3c4c(ccc1c24)C(=O)N(c1ccccc1)C3=O [4456-3445 (6739753)]	MIC Veg. cells [2, 13]: <0.3* ug/ml; MIC veg. cells SAB model medium [2, 14]: <0.3 µg/mL; MIC veg. cells flora [2, 15]: 0.6 to 1.2 µg/mL; MIC spores [4, 16]: <0.3* ug/ml; MIC spores SAB model medium [4, 14]: <0.3 µg/mL
> 100 µg/mL	0.07 to 0.15 µg/mL (≈ 0.189 to 0.405 µM)	0.07 to 0.15 µg/mL (≈ 0.189 to 0.405 µM)	0.3 to 0.6 µg/mL (≈ 0.81 to 1.62 µM)	100 µg/mL (≈ 270 µM)	0.07 to 0.15 µg/mL (≈ 0.189 to 0.405 µM)	0.03 to 0.07 µg/mL (≈ 0.081 to 0.189 µM)	> 1.2 µg/mL	Cc1ccc(C)c(N2C(=O)c3ccc4c5c(ccc(c35)C2=O)C(=O)NC4=O)c1 [20141155PBmol23]	
